Experimental data reported in the supplement of paper PMC10307832.

Assays:
Experiment in all cases: relative viability (nuclei count vs DMSO), 5 days (fraction); higher = more cells survive
[1] = system: ChaGo-K-1
In short: (§1)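 The day after seeding in 1536-well plates, lung cancer cell lines were treated by pin tool with a single drug, or with a fixed anchor-drug dose together with five library-drug doses (not always all listed) in √10 steps. After 5 days, a combined fix-and-stain solution (final 0.05% Triton X-100, 1% formaldehyde, 1 ug/ml Hoechst) was added. Nuclei counted on 4× images gave relative viability as treated counts over vehicle counts, reported as the median of duplicate plates.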

[2] = system: HCC-78
In short: as §1

[3] = system: HOP-62
In short: as §1

[4] = system: LCLC-97TM1
In short: as §1

[5] = system: LK-2
In short: as §1

[6] = system: NCI-H1355
In short: as §1

[7] = system: NCI-H1623
In short: as §1

[8] = system: NCI-H1650
In short: as §1

[9] = system: NCI-H1734
In short: as §1

[10] = system: NCI-H1755
In short: as §1

[11] = system: NCI-H1944
In short: as §1

[12] = system: NCI-H1975
In short: as §1

[13] = system: NCI-H1993
In short: as §1

[14] = system: NCI-H2126
In short: as §1

[15] = system: NCI-H2228
In short: as §1

[16] = system: NCI-H2342
In short: as §1

[17] = system: NCI-H23
In short: as §1

[18] = system: NCI-H2405
In short: as §1

[19] = system: NCI-H358
In short: as §1

[20] = system: NCI-H460
In short: as §1

[21] = system: NCI-H596
In short: as §1

[22] = system: NCI-H727
In short: as §1

[23] = system: PC-3 [JPC-3]
In short: as §1

Molecule `Nc1cccc2c1CN(C1CCC(=O)NC1=O)C2=O` (centres undefined) [Lenalidomide] + Cc1nc(Nc2ncc(C(=O)Nc3c(C)cccc3Cl)s2)cc(N2CCN(CCO)CC2)n1 [Dasatinib] (partner 0.075 µM) has a relative viability ([1]; first compound 0.253 µM) of 0.565, a relative viability ([1]; first compound 0.8 µM) of 0.495 and a relative viability ([1]; first compound 2.53 µM) of 0.677. It also gave a relative viability ([1]; first compound 8 µM) of 0.595, a relative viability ([2]; first compound 0.253 µM) of 0.52 and a relative viability ([2]; first compound 0.8 µM) of 0.371. It also gave a relative viability ([2]; first compound 2.53 µM) of 0.465, a relative viability ([2]; first compound 8 µM) of 0.308 and a relative viability ([3]; first compound 0.253 µM) of 0.67. The relative viability ([3]; first compound 0.8 µM) was 0.615, the relative viability ([3]; first compound 2.53 µM) was 0.79 and the relative viability ([3]; first compound 8 µM) was 0.583. The relative viability ([4]; first compound 0.253 µM) was 0.634, the relative viability ([4]; first compound 0.8 µM) was 0.939 and the relative viability ([4]; first compound 2.53 µM) was 0.909. The relative viability ([4]; first compound 8 µM) was 0.886, the relative viability ([5]; first compound 0.253 µM) was 0.401 and the relative viability ([5]; first compound 0.8 µM) was 0.332. The relative viability ([5]; first compound 2.53 µM) was 0.249, the relative viability ([5]; first compound 8 µM) was 0.172 and the relative viability ([6]; first compound 0.253 µM) was 0.701. The relative viability ([6]; first compound 2.53 µM) was 0.744, the relative viability ([6]; first compound 8 µM) was 0.403 and the relative viability ([7]; first compound 0.253 µM) was 0.51. The relative viability ([7]; first compound 0.8 µM) was 0.466, the relative viability ([7]; first compound 2.53 µM) was 0.523 and the relative viability ([7]; first compound 8 µM) was 0.497. The relative viability ([8]; first compound 0.8 µM) was 0.241, the relative viability ([8]; first compound 2.53 µM) was 0.316 and the relative viability ([8]; first compound 8 µM) was 0.303. For the same molecule, the relative viability ([9]; first compound 0.253 µM) was 0.506, the relative viability ([9]; first compound 0.8 µM) was 0.474 and the relative viability ([9]; first compound 2.53 µM) was 0.562. It also gave a relative viability ([9]; first compound 8 µM) of 0.4, a relative viability ([10]; first compound 0.253 µM) of 0.404 and a relative viability ([10]; first compound 0.8 µM) of 0.216. For the same molecule, the relative viability ([10]; first compound 2.53 µM) was 0.428, the relative viability ([10]; first compound 8 µM) was 0.33 and the relative viability ([11]; first compound 0.253 µM) was 0.239. It also gave a relative viability ([11]; first compound 0.8 µM) of 0.251, a relative viability ([11]; first compound 2.53 µM) of 0.208 and a relative viability ([11]; first compound 8 µM) of 0.173. It also gave a relative viability ([12]; first compound 0.253 µM) of 0.406, a relative viability ([12]; first compound 0.8 µM) of 0.287 and a relative viability ([12]; first compound 2.53 µM) of 0.486. For the same molecule, the relative viability ([12]; first compound 8 µM) was 0.366, the relative viability ([13]; first compound 0.253 µM) was 0.498 and the relative viability ([13]; first compound 0.8 µM) was 0.583. For the same molecule, the relative viability ([13]; first compound 2.53 µM) was 0.609, the relative viability ([13]; first compound 8 µM) was 0.443 and the relative viability ([14]; first compound 0.253 µM) was 0.661. It also gave a relative viability ([14]; first compound 0.8 µM) of 0.559, a relative viability ([14]; first compound 2.53 µM) of 0.678 and a relative viability ([14]; first compound 8 µM) of 0.479. The relative viability ([15]; first compound 0.253 µM) was 0.444, the relative viability ([15]; first compound 0.8 µM) was 0.58 and the relative viability ([15]; first compound 2.53 µM) was 0.562. The relative viability ([15]; first compound 8 µM) was 0.405, the relative viability ([16]; first compound 0.253 µM) was 0.312 and the relative viability ([16]; first compound 0.8 µM) was 0.305. For the same molecule, the relative viability ([16]; first compound 2.53 µM) was 0.322, the relative viability ([16]; first compound 8 µM) was 0.3 and the relative viability ([17]; first compound 0.253 µM) was 0.857. The relative viability ([17]; first compound 0.8 µM) was 0.543, the relative viability ([17]; first compound 2.53 µM) was 0.97 and the relative viability ([17]; first compound 8 µM) was 0.687. It also gave a relative viability ([18]; first compound 0.253 µM) of 0.23, a relative viability ([18]; first compound 0.8 µM) of 0.185 and a relative viability ([18]; first compound 2.53 µM) of 0.217. The relative viability ([18]; first compound 8 µM) was 0.21, the relative viability ([19]; first compound 0.253 µM) was 0.196 and the relative viability ([19]; first compound 0.8 µM) was 0.235. It also gave a relative viability ([19]; first compound 2.53 µM) of 0.19, a relative viability ([19]; first compound 8 µM) of 0.165 and a relative viability ([20]; first compound 0.253 µM) of 0.597. The relative viability ([20]; first compound 0.8 µM) was 0.473, the relative viability ([20]; first compound 2.53 µM) was 0.673 and the relative viability ([20]; first compound 8 µM) was 0.308. It also gave a relative viability ([21]; first compound 0.253 µM) of 0.644, a relative viability ([21]; first compound 2.53 µM) of 0.655 and a relative viability ([21]; first compound 8 µM) of 0.505. The relative viability ([22]; first compound 0.253 µM) was 0.357, the relative viability ([22]; first compound 0.8 µM) was 0.326 and the relative viability ([22]; first compound 2.53 µM) was 0.335. It also gave a relative viability ([22]; first compound 8 µM) of 0.384, a relative viability ([23]; first compound 0.253 µM) of 1 and a relative viability ([23]; first compound 0.8 µM) of 0.901. It also gave a relative viability ([23]; first compound 2.53 µM) of 1.08 and a relative viability ([23]; first compound 8 µM) of 1.04.
